Reference: ChEMBL document CHEMBL4152332, “Discovery and synthesis of novel magnolol derivatives with potent anticancer activity in non-small cell lung cancer” (Eur J Med Chem, 2018)

Assays:
NCI-H1975 [1] = assay: Antiproliferative activity against human NCI-H1975 cells after 72 hrs by MTT assay; assay type: functional, cell-based; settings: NCI-H1975, 72 h
NCI-H1975 [2] = assay: Cell cycle arrest in human NCI-H1975 cells assessed as accumulation at G2/M phase at 40 uM after 24 hrs by propidium iodide staining-based flow cytometric analysis (reference value: 20.11%); assay type: functional
Mus musculus [3] = assay: Toxicity in Balb/c mouse xenografted with human NCI-H1975 cells assessed as change in body weight at 20 mg/kg, iv treated every 2 days for 9 days and measured every 2 days after compound dosing ( Rvb = 2.89%); assay type: organism-based; settings: in vivo
[4] = Apparent aqueous solubility of the compound by HPLC analysis; assay type: physicochemical; settings: aqueous solution
Mus musculus [5] = assay: Toxicity in Balb/c mouse xenografted with human NCI-H1975 cells assessed as mouse death at 20 mg/kg, iv treated every 2 days for 9 days and measured every 2 days after compound dosing; assay type: organism-based; settings: in vivo
Mus musculus [6] = assay: Toxicity in Balb/c mouse implanted with mouse C26 cells assessed as change in body weight at 100 mg/kg, po qd treated for 10 days and measured every 2 days (RVB = 16.4%); assay type: organism-based; settings: in vivo
NCI-H1975 [7] = assay: Antitumor activity against human NCI-H1975 cells xenografted in Balb/c mouse assessed as change in tumor mass at 100 mg/kg, po qd treated for 18 days and measured every 2 days after compound dosing relative to control; assay type: functional
NCI-H441 = assay: Antiproliferative activity against human H441 cells after 72 hrs by MTT assay; assay type: functional, cell-based; settings: NCI-H441, 72 h
NCI-H1975 [8] = assay: Induction of apoptosis in human NCI-H1975 cells assessed as viable cells at 40 uM after 48 hrs by annexin V/FITC-propidium iodide staining-based flow cytometric method ( Rvb = 82.5%); assay type: functional; settings: NCI-H1975, 48 h, read-out: Activity
Mus musculus [9] = assay: Toxicity in Balb/c mouse implanted with mouse C26 cells assessed as mouse death at 100 mg/kg, po qd treated for 10 days; assay type: organism-based; settings: in vivo, 240 h
HCC827 = assay: Antiproliferative activity against human HCC827 cells after 72 hrs by MTT assay; assay type: functional, cell-based; settings: HCC827, 72 h
NCI-H1975 [10] = assay: Cell cycle arrest in human NCI-H1975 cells assessed as accumulation at S phase at 40 uM after 24 hrs by propidium iodide staining-based flow cytometric analysis (reference value: 22.93%); assay type: functional
Mus musculus [11] = assay: Toxicity in Balb/c mouse xenografted with human NCI-H1975 cells assessed as mouse death at 100 mg/kg, po qd treated for 18 days and measured every 2 days after compound dosing; assay type: organism-based; settings: in vivo
NCI-H1650 = assay: Antiproliferative activity against human NCI-H1650 cells after 72 hrs by MTT assay; assay type: functional, cell-based; settings: NCI-H1650, 72 h
[12] = Antiproliferative activity against human SPC-A1 cells after 72 hrs by MTT assay; assay type: functional, cell-based; settings: SPCA1, 72 h
Mus musculus [13] = assay: Toxicity in Balb/c mouse xenografted with human NCI-H1975 cells assessed as change in body weight at 100 mg/kg, po qd treated for 18 days and measured every 2 days after compound dosing ( Rvb = 2.89%); assay type: organism-based; settings: in vivo
NCI-H1975 [14] = assay: Induction of apoptosis in human NCI-H1975 cells assessed as early apoptotic cells at 40 uM after 48 hrs by annexin V/FITC-propidium iodide staining-based flow cytometric method ( Rvb = 6.09%); assay type: functional
NCI-H358 = assay: Antiproliferative activity against human NCI-H358 cells after 72 hrs by MTT assay; assay type: functional, cell-based; settings: NCI-H358, 72 h
NCI-H1975 [15] = assay: Cell cycle arrest in human NCI-H1975 cells assessed as accumulation at G0/G1 phase at 40 uM after 24 hrs by propidium iodide staining-based flow cytometric analysis (reference value: 56.11%); assay type: functional
PC-9 = assay: Antiproliferative activity against human PC9 cells after 72 hrs by MTT assay; assay type: functional, cell-based; settings: PC-9, 72 h
NCI-H1975 [16] = assay: Antitumor activity against human NCI-H1975 cells xenografted in Balb/c mouse assessed as change in tumor mass at 20 mg/kg, iv treated every 2 days for 9 days and measured every 2 days after compound dosing relative to control; assay type: functional
NCI-H460 = assay: Antiproliferative activity against human H460 cells after 72 hrs by MTT assay; assay type: functional, cell-based; settings: NCI-H460, 72 h
NCI-H1975 [17] = assay: Induction of apoptosis in human NCI-H1975 cells assessed as necrotic cells at 40 uM after 48 hrs by annexin V/FITC-propidium iodide staining-based flow cytometric method ( Rvb = 1.01%); assay type: functional
[18] = Antitumor activity against mouse C26 cells implanted in Balb/c mouse assessed as tumor growth inhibition at 100 mg/kg, po qd and measured every 2 days relative to control; assay type: functional; settings: 48 h, read-out: TGI
NCI-H1975 [19] = assay: Induction of apoptosis in human NCI-H1975 cells assessed as late apoptotic cells at 40 uM after 48 hrs by annexin V/FITC-propidium iodide staining-based flow cytometric method ( Rvb = 10.4%); assay type: functional

`C=CCc1ccc(O)c(-c2ccc(O)c(CC=C)c2)c1` [HONOKIOL] showed an IC50 (NCI-H1975 [1]) of 30.2 µM, an Activity (NCI-H1975 [2]) of 18.55% and an Activity (Mus musculus [3]) of 6.1%. For the same compound, the solubility [4] was under 10 µg/mL, the Activity (Mus musculus [5]) was “Non-Toxic” and the Activity (Mus musculus [6]) was 6.92%. It also gave an Activity (NCI-H1975 [7]) of 11.8%, an IC50 (NCI-H441) of 33.3 µM and a viability at 40 µM (NCI-H1975 [8]) of 47.4%. For the same compound, the Activity (Mus musculus [9]) was “Non-Toxic”, the IC50 (HCC827) was 33.9 µM and the Activity (NCI-H1975 [10]) was 6.54%. The Activity (Mus musculus [11]) was “Non-Toxic”, the IC50 (NCI-H1650) was 37.4 µM and the IC50 [12] was 39 µM. The Activity (Mus musculus [13]) was 1.38%, the Activity (NCI-H1975 [14]) was 43.8% and the IC50 (NCI-H358) was 31.6 µM. It also gave an Activity (NCI-H1975 [15]) of 67.42%, an IC50 (PC-9) of 36.7 µM and an Activity (NCI-H1975 [16]) of 73%. For the same compound, the IC50 (NCI-H460) was 38.5 µM, the Activity (NCI-H1975 [17]) was 0.87% and the inhibition in vivo at 100 mg/kg [18] was 16.7%. The Activity (NCI-H1975 [19]) was 7.97%.
